Measured values as given in patent US10676471B2, “Cycloalkyl-linked diheterocycle derivatives” (Pfizer Inc., priority 2014, dated 2020).

tested on: BT20 Cell; experiment: Cancer Cell Lysate Total L-Glutamate Assay; format: cell-based; conditions: Homo sapiens, BT-20, 2 h, total L-glutamate in cell lysate, BT20 cells, 2 hour incubation with test compound
How it was run: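 BT20 and other cancer lines at ~80% confluence were given fresh L-glutamine-containing medium, then treated with serially diluted compound (0.5% DMSO) for 2 hours at 37° C. Washed cells were lysed by freeze-thaw and sonication. Lysate glutamate was measured via glutamate oxidase/HRP/50 μM Amplex Red fluorescence (ex 530-560, em 585 nm); IC50 by four-parameter logistic fit.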

| SMILES | IC50 [nM] |
| --- | --- |
| Nc1nnc(C[C@H]2CC[C@@H](c3nnc(N)s3)C2)s1 (single isomer, unassigned) [Example 41] | > 40400 |
| CC(=O)Nc1nnc(C[C@@H]2CC[C@H](c3nnc(NC(=O)Cc4ccccc4)s3)C2)s1 (single isomer, unassigned) [Example 44, N-{5-[(cis)-3-{[5-(acetylamino)-1,3,4-thiadiazol-2-yl]methyl}cyclopentyl]-1,3,4-thiadiazol-2-yl}-2-phenylacetamide] | 5.5 |
| CC(=O)Nc1nnc(C[C@H]2CC[C@@H](c3nnc(NC(=O)Cc4ccccc4)s3)C2)s1 (single isomer, unassigned) [Example 45, N-{5-[(cis)-3-{[5-(acetylamino)-1,3,4-thiadiazol-2-yl]methyl}cyclopentyl]-1,3,4-thiadiazol-2-yl}-2-phenylacetamide] | 295 |
| CC(=O)Nc1nnc([C@@H]2CC[C@H](Cc3nnc(NC(=O)Cc4cncnc4)s3)C2)s1 (single isomer, unassigned) [Example 50, N-[5-({(cis)-3-[5-(acetylamino)-1,3,4-thiadiazol-2-yl]cyclopentyl}methyl)-1,3,4-thiadiazol-2-yl]-2-(pyrimidin-5-yl)acetamide] | 8750 |
| CC(=O)Nc1nnc([C@H]2CC[C@@H](Cc3nnc(NC(=O)Cc4cncnc4)s3)C2)s1 (single isomer, unassigned) [Example 51, N-[5-({(cis)-3-[5-(acetylamino)-1,3,4-thiadiazol-2-yl]cyclopentyl}methyl)-1,3,4-thiadiazol-2-yl]-2-(pyrimidin-5-yl)acetamide] | 64.5 |
| CC(=O)Nc1nnc([C@H]2CC[C@@H](Cc3nnc(NC(=O)Cc4ccc(C)nc4)s3)C2)s1 (single isomer, unassigned) [Example 53, N-[5-({(cis)-3-[5-(acetylamino)-1,3,4-thiadiazol-2-yl]cyclopentyl}methyl)-1,3,4-thiadiazol-2-yl]-2-(6-methylpyridin-3-yl)acetamide] | 6.8 |
| CC(=O)Nc1nnc([C@@H]2CC[C@H](Cc3nnc(NC(=O)Cc4ccc(C)nc4)s3)C2)s1 (single isomer, unassigned) [Example 54, N-[5-({(cis)-3-[5-(acetylamino)-1,3,4-thiadiazol-2-yl]cyclopentyl}methyl)-1,3,4-thiadiazol-2-yl]-2-(6-methylpyridin-3-yl)acetamide] | 1280 |
| CC(=O)Nc1nnc(C[C@H]2CC[C@@H](c3nnc(NC(=O)Cc4ccccn4)s3)C2)s1 (single isomer, unassigned) [Example 56, N-{5-[(cis)-3-{[5-(acetylamino)-1,3,4-thiadiazol-2-yl]methyl}cyclopentyl]-1,3,4-thiadiazol-2-yl}-2-(pyridin-2-yl)acetamide] | 2700 |
| CC(=O)Nc1nnc(C[C@@H]2CC[C@H](c3nnc(NC(=O)Cc4ccccn4)s3)C2)s1 (single isomer, unassigned) [Example 57, N-{5-[(cis)-3-{[5-(acetylamino)-1,3,4-thiadiazol-2-yl]methyl}cyclopentyl]-1,3,4-thiadiazol-2-yl}-2-(pyridin-2-yl)acetamide] | 21.4 |
| CC(=O)Nc1nnc(C[C@@H]2CC[C@H](c3nnc(NC(=O)Cc4cncnc4)s3)C2)s1 (single isomer, unassigned) [Example 58, N-{5-[(cis)-3-{[5-(acetylamino)-1,3,4-thiadiazol-2-yl]methyl}cyclopentyl]-1,3,4-thiadiazol-2-yl}-2-(pyrimidin-5-yl)acetamide] | 276 |
| CC(=O)Nc1nnc(C[C@H]2CC[C@@H](c3nnc(NC(=O)Cc4cncnc4)s3)C2)s1 (single isomer, unassigned) [Example 59, N-{5-[(cis)-3-{[5-(acetylamino)-1,3,4-thiadiazol-2-yl]methyl}cyclopentyl]-1,3,4-thiadiazol-2-yl}-2-(pyrimidin-5-yl)acetamide] | 7760 |
| CC(=O)Nc1nnc(C[C@H]2C[C@@H](c3nnc(NC(C)=O)s3)C2)s1 (single isomer, unassigned) [Example 62, N-[5-({cis-3-[5-(acetylamino)-1,3,4-thiadiazol-2-yl]cyclobutyl}methyl)-1,3,4-thiadiazol-2-yl]acetamide] | 38.5 |
| CC(=O)Nc1nnc(C[C@H]2C[C@H](c3nnc(NC(C)=O)s3)C2)s1 (single isomer, unassigned) [Example 63, N-[5-({trans-3-[5-(acetylamino)-1,3,4-thiadiazol-2-yl]cyclobutyl}methyl)-1,3,4-thiadiazol-2-yl]acetamide] | 110 |
| Nc1nnc(CC2CC[C@H](c3nnc(NC(=O)Cc4ccccc4)s3)C2)s1 (single isomer, unassigned) [Example 64, N-(5-{(cis)-3-[(5-amino-1,3,4-thiadiazol-2-yl)methyl]cyclopentyl}-1,3,4-thiadiazol-2-yl)-2-phenylacetamide] | 71.2 |
| Nc1nnc(CC2CC[C@@H](c3nnc(NC(=O)Cc4ccccc4)s3)C2)s1 (single isomer, unassigned) [Example 65, N-(5-{(cis)-3-[(5-amino-1,3,4-thiadiazol-2-yl)methyl]cyclopentyl}-1,3,4-thiadiazol-2-yl)-2-phenylacetamide] | 1820 |
| O=C(Cc1ccccn1)Nc1nnc(C[C@@H]2CC[C@H](c3nnc(Nc4ncccn4)s3)C2)s1 (single isomer, unassigned) [Example 84, 2-(pyridin-2-yl)-N-[5-({(cis)-3-[5-(pyrimidin-2-ylamino)-1,3,4-thiadiazol-2-yl]cyclopentyl}methyl)-1,3,4-thiadiazol-2-yl]acetamide] | 0.5 |

The next lines start with the values.

| IC50 [nM] | SMILES |
| --- | --- |
| 7.1 | CC(=O)Nc1ccc(C[C@H]2CC[C@@H](c3nnc(NC(=O)Cc4ccccn4)s3)C2)nn1 (single isomer, unassigned) [Example 68, N-{5-[(cis)-3-{[6-(acetylamino)pyridazin-3-yl]methyl}cyclopentyl]-1,3,4-thiadiazol-2-yl}-2-(pyridin-2-yl)acetamide] |
| 2.5 | CC(=O)Nc1ccc(C[C@@H]2CC[C@H](c3nnc(NC(=O)Cc4ccccn4)s3)C2)nn1 (single isomer, unassigned) [Example 69, N-{5-[(cis)-3-{[6-(acetylamino)pyridazin-3-yl]methyl}cyclopentyl]-1,3,4-thiadiazol-2-yl}-2-(pyridin-2-yl)acetamide] |
| 2.7 | O=C(Cc1ccccn1)Nc1ccc(C[C@H]2CC[C@@H](c3nnc(NC(=O)Cc4ccccn4)s3)C2)nn1 (single isomer, unassigned) [Example 71, 2-(pyridin-2-yl)-N-{5-[(cis)-3-({6-[(pyridin-2-ylacetyl)amino]pyridazin-3-yl}methyl)cyclopentyl]-1,3,4-thiadiazol-2-yl}acetamide] |
| 0.9 | O=C(Cc1ccccn1)Nc1ccc(C[C@@H]2CC[C@H](c3nnc(NC(=O)Cc4ccccn4)s3)C2)nn1 (single isomer, unassigned) [Example 72, 2-(pyridin-2-yl)-N-{5-[(cis)-3-({6-[(pyridin-2-ylacetyl)amino]pyridazin-3-yl}methyl)cyclopentyl]-1,3,4-thiadiazol-2-yl}acetamide] |
| 0.7 | CCC(=O)Nc1ccc(C[C@H]2C[C@@H](c3nnc(NC(=O)Cc4ccccn4)s3)C2)nn1 (single isomer, unassigned) [Example 73] |
| 3.4 | O=C(Cc1ccccn1)Nc1ccc(C[C@H]2CC[C@@H](c3nnc(Nc4ccccn4)s3)C2)nn1 (single isomer, unassigned) [Example 74, 2-(pyridin-2-yl)-N-[6-({(cis)-3-[5-(pyridin-2-ylamino)-1,3,4-thiadiazol-2-yl]cyclopentyl}methyl)pyridazin-3-yl]acetamide] |
| 1.1 | O=C(Cc1ccccn1)Nc1ccc(C[C@@H]2CC[C@H](c3nnc(Nc4ccccn4)s3)C2)nn1 (single isomer, unassigned) [Example 75, 2-(pyridin-2-yl)-N-[6-({(cis)-3-[5-(pyridin-2-ylamino)-1,3,4-thiadiazol-2-yl]cyclopentyl}methyl)pyridazin-3-yl]acetamide] |
| 0.4 | CC(C)C(=O)Nc1ccc(C[C@@H]2CC[C@H](c3nnc(NC(=O)Cc4ccccn4)s3)C2)nn1 (single isomer, unassigned) [Example 77, 2-methyl-N-(6-{[(cis)-3-{5-[(pyridin-2-ylacetyl)amino]-1,3,4-thiadiazol-2-yl}cyclopentyl]methyl}pyridazin-3-yl)propanamide] |
| 3 | CC(C)C(=O)Nc1ccc(C[C@H]2CC[C@@H](c3nnc(NC(=O)Cc4ccccn4)s3)C2)nn1 (single isomer, unassigned) [Example 78, 2-methyl-N-(6-{[(cis)-3-{5-[(pyridin-2-ylacetyl)amino]-1,3,4-thiadiazol-2-yl}cyclopentyl]methyl}pyridazin-3-yl)propanamide] |
| 1.1 | CCC(=O)Nc1ccc(C[C@@H]2CC[C@H](c3nnc(NC(=O)Cc4ccccn4)s3)C2)nn1 (single isomer, unassigned) [Example 79, N-(6-{[(cis)-3-{5-[(pyridin-2-ylacetyl)amino]-1,3,4-thiadiazol-2-yl}cyclopentyl]methyl}pyridazin-3-yl)propanamide] |
| 4.5 | O=C(Cc1ccccc1)Nc1ccc(C[C@H]2CC[C@@H](c3nnc(NC(=O)Cc4ccccn4)s3)C2)nn1 (single isomer, unassigned) [Example 81, 2-phenyl-N-(6-{[(cis)-3-{5-[(pyridin-2-ylacetyl)amino]-1,3,4-thiadiazol-2-yl}cyclopentyl]methyl}pyridazin-3-yl)acetamide] |
| 0.1 | O=C(Cc1ccccc1)Nc1ccc(C[C@@H]2CC[C@H](c3nnc(NC(=O)Cc4ccccn4)s3)C2)nn1 (single isomer, unassigned) [Example 82, 2-phenyl-N-(6-{[(cis)-3-{5-[(pyridin-2-ylacetyl)amino]-1,3,4-thiadiazol-2-yl}cyclopentyl]methyl}pyridazin-3-yl)acetamide] |
| 8.2 | O=C(Cc1ccccn1)Nc1nnc(C[C@@H]2CC[C@@H](c3nnc(Nc4ccccn4)s3)C2)s1 (single isomer, unassigned) [Example 85, 2-(pyridin-2-yl)-N-[5-({3-[5-(trans)(pyridin-2-ylamino)-1,3,4-thiadiazol-2-yl]cyclopentyl}methyl)-1,3,4-thiadiazol-2-yl]acetamide] |
